Experimental findings from the NIST ThermoML archive (doi:10.1021/acs.jced.5b00154) are described below.

For the data set the following is noted: 101.33 kPa, Liquid, Vibrating tube method.

Numbers after ± are expanded uncertainties.

As to `[2H]O[2H]` [water-d2], the mass density was 1105.53 ± 0.08 kg/m3 (278.15 K); 1105.77 ± 0.08 kg/m3 (288.15 K); 1104.36 ± 0.079 kg/m3 (298.15 K); 1101.63 ± 0.079 kg/m3 (308.15 K); 1097.84 ± 0.078 kg/m3 (318.15 K).

As usually defined, the mass density is the mass of a sample divided by its volume.
